Among the test systems are ACHN; COLO 205; DU-145; IGROV-1; K562; MCF7; MDA-MB-231; Malme-3M; NCI-H226; RPMI-8226; SK-MEL-28; SK-MEL-5; SN12C; SNB-19; U-251; UACC-257; SF-539; SNB-75; SR.
Experiment in all cases: NCI-60 cell line screen, 48 h

Each structure is given as a SMILES string.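 Results reflect a 48-hour exposure of cells in 96-well plates to compound at five concentrations. GI50 = concentration required for 50% inhibition of growth.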 Active and inactive are the calls of the source. No stated cut-off is given here; in the data, active = GI50 up to about 1.1 µM and inactive = higher.

In the case of `NC(=O)Nc1ccc(S(=O)(=O)Nc2ccc(S(N)(=O)=O)cc2)cc1`, the GI50 in the test with ACHN, in the test on COLO 205, with DU-145, in the test on IGROV-1, in the test with K562 and with MCF7 was > 100 µM (inactive) in each case. The GI50 with MDA-MB-231, with Malme-3M, with NCI-H226, in the test with RPMI-8226, in the test with SK-MEL-28 and in the test on SK-MEL-5 was > 100 µM (inactive) throughout. Also, the GI50 with SN12C, with SNB-19, with U-251 and with UACC-257 was > 100 µM (inactive) in each case.

Consider `CC(C)(C)CNCCO`, for which the GI50 in the test with ACHN, with COLO 205, in the test with DU-145, with IGROV-1, in the test with MCF7 and in the test on MDA-MB-231 was > 100 µM (inactive) each time. For the same compound, the GI50 in the test with Malme-3M, in the test on NCI-H226, with RPMI-8226, with SF-539, with SK-MEL-28 and in the test on SK-MEL-5 was > 100 µM (inactive) in each case. Besides, the GI50 in the test with SN12C, in the test with SNB-19, in the test on SNB-75, in the test on U-251 and with UACC-257 was > 100 µM (inactive) throughout.

Turning to `O=C(O)C1C2OC(C(Br)C2Br)C1C(=O)O` (stereo not given), the GI50 in the test on ACHN, in the test with COLO 205, in the test on DU-145, in the test with IGROV-1, with K562 and in the test with MCF7 was > 100 µM (inactive) throughout. Also, the GI50 in the test on MDA-MB-231, in the test on Malme-3M, in the test on NCI-H226, in the test on RPMI-8226, with SF-539 and with SK-MEL-28 was > 100 µM (inactive) throughout. In addition, the GI50 in the test with SK-MEL-5, in the test on SN12C, with SNB-19, with SNB-75, with U-251 and in the test on UACC-257 was > 100 µM (inactive) each time.

Regarding `CC1=C(\C=C/C(C)=C/C=C/C(C)=C/C=C/C=C(C)\C=C\C=C(C)/C=C/C2=C(C)CCCC2(C)C)C(C)(C)CCC1`, the GI50 with ACHN was > 100 µM (inactive); in the test on COLO 205, 52.6 µM (inactive); in the test on DU-145, > 100 µM (inactive); in the test with IGROV-1, > 100 µM (inactive); in the test on K562, > 100 µM (inactive); in the test with MCF7 it was 75.2 µM (inactive). Further, the GI50 in the test with MDA-MB-231 is > 100 µM (inactive); with Malme-3M, > 100 µM (inactive); in the test on NCI-H226, > 100 µM (inactive); in the test on SK-MEL-28, 46.5 µM (inactive); with SK-MEL-5, > 100 µM (inactive); with SN12C, > 100 µM (inactive). The GI50 in the test with SNB-19 was > 100 µM (inactive); in the test on SNB-75, > 100 µM (inactive); with U-251, 56.2 µM (inactive); in the test with UACC-257, > 100 µM (inactive).

As to `O=c1[nH]nc(-c2ccccc2)n1/N=C/c1c(O)ccc2ccccc12`, the GI50 with ACHN was 26.3 µM (inactive); in the test with COLO 205, 31.8 µM (inactive); with DU-145 it was 76.4 µM (inactive); in the test on IGROV-1, > 100 µM (inactive); in the test on K562 it was 60 µM (inactive); in the test on MCF7, 59.7 µM (inactive). The GI50 is 83.6 µM (inactive) in the test on MDA-MB-231; 82.2 µM (inactive) in the test with RPMI-8226; 31.2 µM (inactive) in the test with SF-539; 75.7 µM (inactive) in the test on SK-MEL-28; 30.2 µM (inactive) in the test with SK-MEL-5; 45.3 µM (inactive) in the test with SN12C. The GI50 is 24.9 µM (inactive) in the test on SNB-19; 31.7 µM (inactive) in the test with SNB-75; 72.6 µM (inactive) in the test with SR; 26.1 µM (inactive) with U-251; 68.5 µM (inactive) in the test on UACC-257.

Turning to `O=C(/C=C\c1ccc([N+](=O)[O-])cc1)c1ccccc(=O)c1O`, the GI50 in the test with ACHN was 1.01 µM (active); with COLO 205, 0.397 µM (active); in the test with DU-145, 2.11 µM (inactive); in the test on IGROV-1 it was 1.14 µM (inactive); with K562 it was 0.92 µM (active); in the test on MCF7, 0.277 µM (active). Besides, the GI50 with MDA-MB-231 is 3.37 µM (inactive); with Malme-3M, 0.873 µM (active); with NCI-H226 it was 1.65 µM (inactive); with RPMI-8226, 0.682 µM (active); in the test on SK-MEL-28, 1.41 µM (inactive); in the test on SK-MEL-5 it was 0.558 µM (active). Also, the GI50 was 4.81 µM (inactive) in the test with SN12C; 4.65 µM (inactive) in the test on SNB-19; 1.29 µM (inactive) in the test on SNB-75; 1.01 µM (active) in the test with U-251; 1.77 µM (inactive) with UACC-257.

On to `C[C@@H]1OC(=O)C[C@H]2CC(=O)N(CCC3CN(C(=O)c4ccccc4)c4ccccc43)C[C@@H]21` (stereo not given in full), for which the GI50 in the test on ACHN, in the test on COLO 205, in the test on DU-145, in the test on IGROV-1, in the test on K562 and with MCF7 was > 100 µM (inactive) throughout. The GI50 with MDA-MB-231, with Malme-3M, in the test on RPMI-8226, in the test with SK-MEL-28, with SK-MEL-5 and with SNB-19 was > 100 µM (inactive) in each case. In addition, the GI50 in the test with SNB-75, with U-251 and with UACC-257 was > 100 µM (inactive) throughout.

In the case of `CCCCCC1=C2C(c3ccc(OC)cc3)=C(N)C(c3ccc(OC)cc3)=C3NC(=O)C(C=C1)C32` (stereo not given), the GI50 was > 100 µM (inactive) with ACHN; 32.1 µM (inactive) with COLO 205; 57.5 µM (inactive) in the test on DU-145; 28.1 µM (inactive) with IGROV-1; 42.1 µM (inactive) in the test with K562; 84.3 µM (inactive) with MCF7. The GI50 with MDA-MB-231 was > 100 µM (inactive); in the test with Malme-3M, 19.5 µM (inactive); in the test with NCI-H226, 21.9 µM (inactive); with RPMI-8226 it was 33 µM (inactive); in the test with SK-MEL-28 it was > 100 µM (inactive); with SK-MEL-5, > 100 µM (inactive). The GI50 in the test on SN12C is 74.8 µM (inactive); with SNB-19, 25.4 µM (inactive); with SNB-75 it was 32.8 µM (inactive); in the test with U-251, 98.2 µM (inactive); in the test with UACC-257, > 100 µM (inactive).

As to `Cc1ccccc1-n1c(=O)c2ncn(CCCl)c2n(-c2ccccc2C)c1=S`, the GI50 in the test with ACHN, in the test on COLO 205, in the test on DU-145, in the test on IGROV-1, in the test with K562 and in the test with MCF7 was > 100 µM (inactive) each time. Also, the GI50 in the test with MDA-MB-231, with NCI-H226, in the test with RPMI-8226, in the test with SF-539, in the test with SK-MEL-28 and with SK-MEL-5 was > 100 µM (inactive) each time. Also, the GI50 with SN12C, in the test on SNB-75, in the test on SR, with U-251 and with UACC-257 was > 100 µM (inactive) each time.

Regarding `COc1cc2nc(Nc3cccc(Br)c3)nc(Nc3cccc(Br)c3)c2cc1OC`, the GI50 is 16 µM (inactive) with ACHN; 13.9 µM (inactive) in the test with COLO 205; 18.3 µM (inactive) with DU-145; 15.1 µM (inactive) in the test with IGROV-1; 22.8 µM (inactive) in the test with K562; 16.9 µM (inactive) with MCF7. Moreover, the GI50 is 21.8 µM (inactive) in the test with MDA-MB-231; 19.1 µM (inactive) in the test on Malme-3M; 17.2 µM (inactive) in the test on SK-MEL-28; 17 µM (inactive) in the test on SK-MEL-5; 16.4 µM (inactive) in the test on SN12C; 16.8 µM (inactive) in the test with SNB-19. In addition, the GI50 with SNB-75 is 17.3 µM (inactive); in the test on U-251 it was 19.2 µM (inactive); in the test with UACC-257, > 10 µM (inactive).

With `CCCCCCCCCCCCCCCCOCC(COP(=O)(O)OCC1OC(n2cc(CC)c(=O)[nH]c2=O)CC1O)OC(=O)CCCCCCCCCCCCCCC` (stereo not given), the GI50 with ACHN, in the test with COLO 205, in the test on DU-145, with IGROV-1, in the test with K562 and with MCF7 was > 100 µM (inactive) each time. For the same compound, the GI50 in the test with MDA-MB-231, in the test with NCI-H226, with RPMI-8226, in the test with SF-539, in the test with SK-MEL-28 and with SN12C was > 100 µM (inactive) in each case. Besides, the GI50 in the test with SNB-19, with SNB-75, in the test on SR, with U-251 and with UACC-257 was > 100 µM (inactive) in each case.

As for `COc1cc2c(cc1OC)-c1[nH]c3ccc([N+](=O)[O-])cc3c1CC(=O)N2`, the GI50 in the test with ACHN was 2.32 µM (inactive); in the test on COLO 205, 0.325 µM (active); in the test with DU-145 it was 1.68 µM (inactive); with IGROV-1 it was 2.39 µM (inactive); in the test with K562, 1.3 µM (inactive); with MCF7 it was 3.59 µM (inactive). Moreover, the GI50 in the test with MDA-MB-231 was 4.15 µM (inactive); in the test on NCI-H226, 0.78 µM (active); in the test with RPMI-8226 it was 3.6 µM (inactive); in the test with SF-539, 0.316 µM (active); in the test on SK-MEL-28 it was 6.19 µM (inactive); in the test with SK-MEL-5 it was 1.58 µM (inactive). Moreover, the GI50 is 2.37 µM (inactive) in the test with SN12C; 6.84 µM (inactive) in the test with SNB-19; 2.43 µM (inactive) in the test with SNB-75; 0.278 µM (active) with SR; 3.32 µM (inactive) with U-251; 8.49 µM (inactive) in the test on UACC-257.

The record behind these values is ChEMBL document CHEMBL1201862, “PubChem BioAssay data set” (2004).
